Test results as given in PubChem BioAssay (NCI).
Several values for one entry are separate records, joined by “and”; a condition that tells them apart may be missing. Equal entries are not always repeated.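 Method: 48-hour compound exposure of cells in 96-well plates, five concentrations, linear interpolation of endpoints. GI50 is the concentration that inhibits growth by half. TGI denotes the concentration required for complete inhibition of growth.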

Experiments:
Test in all cases: growth of human tumour cells (NCI), 48 h
DLD-1 colon = system: DLD-1 colon
786-0 renal = system: 786-0 renal
SR leukemia = system: SR leukemia
ACHN renal = system: ACHN renal
RPMI-8226 leukemia = system: RPMI-8226 leukemia
M19-MEL melanoma = system: M19-MEL melanoma
COLO 205 colon = system: COLO 205 colon
HT29 colon = system: HT29 colon
MDA-MB-435 = system: MDA-MB-435
NCI/ADR-RES ovarian = system: NCI/ADR-RES ovarian

## Cc1cc(C)c2c(c1)CSCc1cc(C)cc(C)c1-2
DLD-1 colon
  TGI: > 100 µM
786-0 renal
  TGI: > 100 µM
SR leukemia
  TGI: 47.4 µM
ACHN renal
  TGI: > 100 µM
RPMI-8226 leukemia
  TGI: 56.4 µM
M19-MEL melanoma
  TGI: 69.2 µM
COLO 205 colon
  TGI: 73.3 µM
HT29 colon
  TGI: 47.1 µM

## CN(C)CCN1C(=O)c2cccc3cc(N)cc(c23)C1=O
DLD-1 colon
  TGI: 27.7 µM
786-0 renal
  GI50: 4.16 µM
  TGI: > 81.6 µM and 23 µM
MDA-MB-435
  GI50: 3.86 µM
  TGI: 15.7 µM and 9.98 µM
SR leukemia
  GI50: 3.38 µM and 0.824 µM
  TGI: > 40.8 µM and 11 µM
ACHN renal
  GI50: 1.33 µM
  TGI: 4.47 µM and 3.63 µM
RPMI-8226 leukemia
  GI50: 3.37 µM
  TGI: 25.2 µM and 19.9 µM
M19-MEL melanoma
  TGI: 12.5 µM
COLO 205 colon
  GI50: 2.23 µM
  TGI: 14.7 µM and 7.19 µM
NCI/ADR-RES ovarian
  TGI: > 67.2 µM and 12.2 µM
HT29 colon
  GI50: 2.75 µM
  TGI: 12 µM and 14.1 µM

## O=c1c(-c2cccc3ccccc23)c(-c2cccc3ccccc23)c1=O
DLD-1 colon
  TGI: > 100 µM
786-0 renal
  TGI: 12.7 µM
SR leukemia
  TGI: > 32 µM
ACHN renal
  TGI: > 100 µM
RPMI-8226 leukemia
  TGI: > 100 µM
M19-MEL melanoma
  TGI: > 100 µM
COLO 205 colon
  TGI: 1.64 µM
HT29 colon
  TGI: 3.03 µM

## O=C(c1ccccc1)c1nc2ccc(Cl)cc2cc1C(Br)Br
DLD-1 colon
  TGI: 0.706 µM
786-0 renal
  TGI: 0.378 µM
MDA-MB-435
  TGI: 1.14 µM
SR leukemia
  TGI: 21.2 µM
ACHN renal
  TGI: 0.662 µM
RPMI-8226 leukemia
  TGI: 1.18 µM
M19-MEL melanoma
  TGI: 1.49 µM
COLO 205 colon
  TGI: 1.6 µM
NCI/ADR-RES ovarian
  TGI: 0.505 µM
HT29 colon
  TGI: 0.743 µM

## O=c1c2ccccc2c(=O)n2n1-c1cccc(c1)CSSCc1cccc-2c1
DLD-1 colon
  GI50: > 100 µM
  TGI: > 100 µM
786-0 renal
  TGI: > 100 µM
SR leukemia
  GI50: > 100 µM
  TGI: > 100 µM
ACHN renal
  GI50: > 100 µM
  TGI: > 100 µM
RPMI-8226 leukemia
  GI50: > 100 µM
  TGI: > 100 µM
M19-MEL melanoma
  GI50: > 100 µM
  TGI: > 100 µM
COLO 205 colon
  GI50: > 100 µM
  TGI: > 100 µM

## CSC(=Nc1ccc([N+](=O)[O-])cc1C#N)NC(=O)c1ccccc1
DLD-1 colon
  TGI: > 100 µM
786-0 renal
  TGI: > 100 µM
SR leukemia
  TGI: > 100 µM
ACHN renal
  TGI: > 100 µM
RPMI-8226 leukemia
  TGI: > 100 µM
M19-MEL melanoma
  TGI: > 100 µM
COLO 205 colon
  TGI: > 100 µM
HT29 colon
  TGI: > 100 µM

## O=c1cc(-c2cccc(Cl)c2)[nH]c2cc3c(cc12)OCO3
DLD-1 colon
  TGI: 8.57 µM
786-0 renal
  GI50: 0.544 µM
  TGI: 23.4 µM and 23.8 µM
MDA-MB-435
  TGI: 0.193 µM
SR leukemia
  TGI: 54.7 µM
ACHN renal
  GI50: 0.565 µM
  TGI: 75 µM and 90.9 µM
RPMI-8226 leukemia
  TGI: > 100 µM
M19-MEL melanoma
  TGI: 75 µM
COLO 205 colon
  TGI: 10.4 µM
HT29 colon
  GI50: 3.19 µM
  TGI: 9.41 µM and 15.4 µM

## CN(N=O)C(=O)NC(CCCCNC(=O)OCc1ccccc1)C(=O)OCc1ccccc1 (centres undefined)
DLD-1 colon
  TGI: > 100 µM
786-0 renal
  TGI: 33.6 µM
SR leukemia
  TGI: 58.4 µM
ACHN renal
  TGI: 32.3 µM
RPMI-8226 leukemia
  TGI: 95.4 µM
M19-MEL melanoma
  TGI: 91.2 µM
COLO 205 colon
  TGI: 47.2 µM
HT29 colon
  TGI: > 100 µM

## Cc1cccc(-c2nc(=S)[nH][nH]2)c1
DLD-1 colon
  TGI: > 100 µM
786-0 renal
  TGI: > 100 µM
SR leukemia
  TGI: > 100 µM
ACHN renal
  TGI: > 100 µM
RPMI-8226 leukemia
  TGI: > 100 µM
M19-MEL melanoma
  TGI: > 100 µM
COLO 205 colon
  TGI: > 100 µM
HT29 colon
  TGI: > 100 µM

## COc1ccc2c(c1[N+](=O)[O-])CC[C@@H]1[C@@H]2CC[C@]2(C)C(=O)CC[C@@H]12
DLD-1 colon
  TGI: > 25 µM
786-0 renal
  GI50: > 25 µM
  TGI: > 562 µM
MDA-MB-435
  GI50: > 1000 µM
  TGI: > 1000 µM
SR leukemia
  GI50: > 25 µM
  TGI: > 1000 µM
ACHN renal
  GI50: 424 µM
  TGI: > 1000 µM
RPMI-8226 leukemia
  GI50: > 1000 µM
  TGI: > 1000 µM
M19-MEL melanoma
  TGI: > 25 µM
COLO 205 colon
  GI50: > 1000 µM
NCI/ADR-RES ovarian
  GI50: 515 µM
  TGI: > 1000 µM
HT29 colon
  GI50: > 1000 µM
  TGI: > 1000 µM

## O=C1c2ccccc2C(=O)N1C/C=N/NS(=O)(=O)c1cccc([N+](=O)[O-])c1
DLD-1 colon
  TGI: > 100 µM
786-0 renal
  TGI: > 100 µM
SR leukemia
  TGI: > 100 µM
ACHN renal
  TGI: > 100 µM
RPMI-8226 leukemia
  TGI: > 100 µM
M19-MEL melanoma
  TGI: > 100 µM
COLO 205 colon
  TGI: > 100 µM
HT29 colon
  TGI: > 100 µM

## NCCNCCNCc1c2ccccc2c(CNCCNCCN)c2ccccc12
DLD-1 colon
  TGI: > 100 µM
786-0 renal
  TGI: > 100 µM
SR leukemia
  TGI: > 100 µM
ACHN renal
  TGI: > 100 µM
RPMI-8226 leukemia
  TGI: > 100 µM
M19-MEL melanoma
  TGI: > 100 µM
COLO 205 colon
  TGI: > 100 µM
HT29 colon
  TGI: > 100 µM

## CC[O-].CC[O-].[O-]c1ccccc1C=NC12CC3CC(CC(C3)C1)C2.[O-]c1ccccc1C=NC12CC3CC(CC(C3)C1)C2.[Ti+4]
DLD-1 colon
  GI50: 11.1 µM
  TGI: > 100 µM
786-0 renal
  GI50: > 100 µM
  TGI: > 100 µM
SR leukemia
  GI50: 29.2 µM
  TGI: > 100 µM
ACHN renal
  GI50: > 100 µM
  TGI: > 100 µM
RPMI-8226 leukemia
  GI50: 57.6 µM
  TGI: > 100 µM
M19-MEL melanoma
  GI50: > 100 µM
  TGI: > 100 µM
COLO 205 colon
  GI50: 67.3 µM
  TGI: > 100 µM
HT29 colon
  GI50: > 100 µM
  TGI: > 100 µM

## CCN(CC)C(=O)c1cccc2c(OC)ccc(OC)c12
DLD-1 colon
  TGI: > 100 µM
786-0 renal
  TGI: > 100 µM
SR leukemia
  TGI: > 100 µM
ACHN renal
  TGI: > 100 µM
RPMI-8226 leukemia
  TGI: > 100 µM
M19-MEL melanoma
  TGI: > 100 µM
COLO 205 colon
  TGI: > 100 µM
HT29 colon
  TGI: > 100 µM
